The values that follow come from patent US8541002B2, “Vaccine for treatment and prevention of herpes simplex virus infection” (Agenus Inc., priority 2003, dated 2013).

Where no end group is shown, it is not given here.

This data set in a line: Turbidity assay for solubility of the peptides. The data set is classed as physicochemical. The following applies: solubility of the antigenic peptides in water or Dimethyl Sulfoxide (DMSO). A digest of the protocol: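 Solubility judged by turbidity: absorbance read between 340 and 360 nm (every 2 nm by spectrophotometer, duplicate; every 4 nm by plate reader, triplicate) and averaged.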
As to `CC[C@H](C)[C@H](NC(=O)[C@H](CO)NC(=O)[C@H](CC(=O)O)NC(=O)[C@@H](NC(=O)[C@@H](NC(=O)[C@@H](NC(=O)CNC(=O)[C@H](CCC(N)=O)NC(=O)[C@H](CCC(N)=O)NC(=O)[C@H](Cc1ccc(O)cc1)NC(=O)[C@H](C)NC(=O)[C@H](CCCCN)NC(=O)[C@@H](N)CO)C(C)C)[C@@H](C)O)C(C)C)C(=O)NCC(=O)N[C@@H](CCSC)C(=O)N[C@@H](CC(C)C)C(=O)N1CCC[C@H]1C(=O)N[C@@H](CCCNC(=N)N)C(=O)N[C@@H](Cc1ccccc1)C(=O)N[C@H](C(=O)N1CCC[C@H]1C(=O)N[C@@H](CCC(=O)O)C(=O)N[C@@H](CC(N)=O)C(=O)N[C@@H](CCC(N)=O)C(=O)N[C@@H](CCCNC(=N)N)C(=O)N[C@H](C(=O)N[C@H](C(=O)N[C@@H](C)C(=O)N[C@@H](CC(C)C)C(=O)N[C@@H](Cc1ccc(O)cc1)C(=O)N[C@@H](CO)C(=O)N[C@@H](CC(C)C)C(=O)N[C@@H](CCCCN)C(=O)N[C@H](C(=O)N[C@@H](C)C(=O)O)[C@@H](C)CC)C(C)C)[C@@H](C)O)[C@@H](C)CC` [US06-3], the Solubility entry was “water”.
Consider `CC(C)C[C@H](NC(=O)[C@@H]1CCCN1C(=O)[C@@H](NC(=O)[C@H](CO)NC(=O)[C@H](C)NC(=O)[C@H](CO)NC(=O)[C@H](CO)NC(=O)[C@H](CCCNC(=N)N)NC(=O)[C@@H](NC(=O)[C@H](CO)NC(=O)[C@@H](N)CC(=O)O)C(C)C)C(C)C)C(=O)N[C@@H](Cc1ccc(O)cc1)C(=O)N1CCC[C@H]1C(=O)N[C@@H](C)C(=O)N[C@@H](C)C(=O)N[C@@H](CO)C(=O)N1CCC[C@H]1C(=O)N[C@H](C(=O)N1CCC[C@H]1C(=O)N[C@@H](C)C(=O)N[C@@H](CCC(=O)O)C(=O)N[C@@H](C)C(=O)N[C@@H](Cc1ccc(O)cc1)C(=O)N[C@@H](Cc1ccc(O)cc1)C(=O)N[C@@H](CO)C(=O)N[C@@H](CCC(=O)O)C(=O)N[C@@H](CO)C(=O)N[C@@H](CCC(=O)O)C(=O)N[C@@H](CC(=O)O)C(=O)N[C@@H](CCC(=O)O)C(=O)N[C@@H](C)C(=O)N[C@@H](C)C(=O)N[C@@H](CC(N)=O)C(=O)N[C@@H](CC(=O)O)C(=O)N[C@@H](Cc1ccccc1)C(=O)O)C(C)C` [US09-2], for which the Solubility result was “water”.
The result for “AAGKRGDSGLLRVCAALSIPKPSEAVRPSRIPRAP [US11-2]” reads “water”.
Take “AGLPSPVPYAPLGSPDPSSPRQRTYVLPRVGIHNA [US10-1]”: the Solubility result is reported as “water”.
The result for “ARLRLEARLGHLVAAILEREQSLVAHALGYQLAFV [UL22-4]” reads “water”.
The result for “ASSQSKPLATQPPVLALSNAPPRRVSPTRGRRRHT [UL01-3]” reads “water”; that for “ATYLLNYAGRIVSSVFLQYPYTKITRLLCELSVQR [UL53-1]”, “DMSO”.
The result for “DEAFPIEYVLRLMNDWADVPCNPYLRVQNTGVSVL [UL34-1]” reads “DMSO”; that for “DEVAPDHEAELYARVQRPGPVPDAEPIYDTVEGYA [UL10-5]”, “water”.
On to “DRPPESPGSELYPLNAQALAHLQMLPADHRAFFRT [US10-2]”, for which the Solubility result is given as “water”.
Regarding “DRPSAYGTWVRVRVFRPPSLTIHPHAVLEGQPFKA [UL44-4]”, the Solubility entry is on record as “water”.
Consider “GPGASPRLYSVVGPLGRQRLIIEELTLETQGMYYW [UL44-1]”, for which the Solubility result is “water”.
“ILSPGALAAIENYVRFSADRLLGLIHMQPLYSAPA [UL40-2]”: the Solubility entry is reported as “water”.
With “IVGILGCAAVGAAPTGPASDTTNATARLPTHPPLI [US05-2]”, the Solubility result is recorded as “water”.
The result for “LEVIFPTTDAKLNYLSRTQRLASLLTYAGPIKAPD [UL33-1]” reads “water”; that for “LSGIAVRLCYIAVVAGVVLVALRYEQEIQRRLFDL [UL53-2]”, “DMSO”; that for “PATLIPRAAAKHLAALTRVQAERSSGYWWVNGDGI [UL45-1]”, “water”.
“PQPPLPQPPLPQPPLPQPPLPPVTRTLTPQSRDSV [UL36-3]”: the Solubility entry is “water”.
For the compound “RAYLVNPFLFAAGFLEDLSHSVFPADTQETTTRRA [UL01-1]”, the Solubility entry is on record as “water”.
The result for “RTLAVRGDASLCQLLFGHPVDAVILRQATRRPRIT [UL16-2]” reads “water”; that for “SRLPPHTQPVFSKRVVMFAWSFLVLKPLELVAAGM [UL20-1]”, “water”.
The result for “SSDVPSVALLLFPNGTVIHLLAFDTLPIATIAPGF [UL22-3]” reads “DMSO”; that for “TQDTACVHGELLARKRERFAAVINRFLDLHQILRG [UL33-2]”, “water”.
The result for “VAPACIIAAVLAYYVTWLARALLLYVNIKRDRLPL [UL20-2]” reads “DMSO”.
Take “VHSRVYNIIQLVLFHNNDQARRAYVARTINHPAIR [UL40-3]”: the Solubility entry is recorded as “water”.
With “VNSAETNTHGLAYDVPEGIRRHLRNPKIRRAFTEQ [UL13-2]”, the Solubility result is “water”.
With “VSIIALTELYFILRRGSAPKNAEPAAPRGRSKGWS [UL53-3]”, the Solubility entry is on record as “water”.
The result for “VSPAHPQTPVGAGSRDLSLKGTPSDGMQPRGADTL [US11-1]” reads “water”.
Take “VTTAEFPRDPGQLLYIPKTYLLGRPRNASLPELPE [UL22-1]”: the Solubility entry is given as “water”.
